Test results: PubChem BioAssay (NCI)
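Growth conditions: 96-well plates. Treatment: test compound, 48 hours, 5 concentrations. Analysis: linear interpolation between bracketing concentrations; unreached endpoints set to highest concentration. Here, GI50 denotes the concentration required for 50% inhibition of growth. Definition used: TGI = concentration required for complete inhibition of growth.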

How the values were obtained:
Test in all cases: NCI tumour cell line growth inhibition, 48 h
OVCAR-5 ovarian = tested on: OVCAR-5 ovarian
TK-10 renal = tested on: TK-10 renal
MALME-3M melanoma = tested on: MALME-3M melanoma
786-0 renal = tested on: 786-0 renal
HL-60(TB) leukemia = tested on: HL-60(TB) leukemia
EKVX NSCLC = tested on: EKVX NSCLC
SF-539 CNS = tested on: SF-539 CNS
SK-MEL-5 melanoma = tested on: SK-MEL-5 melanoma
NCI-H226 lung = tested on: NCI-H226 lung
OVCAR-4 ovarian = tested on: OVCAR-4 ovarian

Row | Structure (SMILES) | TGI (OVCAR-5 ovarian) | TGI (TK-10 renal) | TGI (MALME-3M melanoma) | TGI (786-0 renal) | TGI (HL-60(TB) leukemia) | TGI (EKVX NSCLC) | TGI (SF-539 CNS) | TGI (SK-MEL-5 melanoma) | TGI (NCI-H226 lung) | TGI (OVCAR-4 ovarian) | GI50 (OVCAR-5 ovarian) | GI50 (TK-10 renal) | GI50 (MALME-3M melanoma) | GI50 (786-0 renal) | GI50 (HL-60(TB) leukemia) | GI50 (EKVX NSCLC) | GI50 (SF-539 CNS) | GI50 (SK-MEL-5 melanoma) | GI50 (NCI-H226 lung) | GI50 (OVCAR-4 ovarian)
1 | [N-]=[N+]=Nc1ccc(CCN2CCN(c3cccc(C(F)(F)F)c3)CC2)cc1I | > 100 µM | > 100 µM | > 100 µM | > 100 µM | 45.2 µM | > 100 µM | > 100 µM | > 100 µM | > 100 µM | > 100 µM | – | – | – | – | – | – | – | – | – | –
2 | Oc1c(C(Nc2cccc3ccccc23)c2ccccc2)ccc2cccnc12 (configuration not stated) | > 100 µM | 45.8 µM | 25.7 µM | 76.3 µM | 8.4 µM | 41.1 µM | 21.4 µM | 5.99 µM | 8.06 µM | > 100 µM | 7.32 µM | 11 µM | 5.17 µM | 3.37 µM | 1.93 µM | 2.93 µM | 4.56 µM | 2.1 µM | 2.17 µM | 2.3 µM
3 | NC(=O)c1cc(-c2ccncc2)cc(-c2ccccc2)c1N | > 25 µM | > 25 µM | > 25 µM | > 25 µM | > 25 µM | > 25 µM | > 25 µM | > 25 µM | > 25 µM | > 25 µM | > 25 µM | 6.43 µM | > 25 µM | 15.9 µM | > 25 µM | > 20.2 µM | 10.8 µM | 14.7 µM | 12.7 µM | > 20.6 µM
4 | COc1ccc(-c2nn(-c3ccc(NC(=O)c4ccc(Cl)c(C(F)(F)F)c4)cc3)cc2-c2ccncc2)cc1Cl | > 100 µM | > 32.8 µM | – | 0.449 µM | > 100 µM | > 100 µM | – | 3.84 µM | > 100 µM | > 100 µM | 1.33 µM | 1.71 µM | 1.11 µM | 0.187 µM | 0.794 µM | 1.87 µM | 0.5 µM | 1.33 µM | 4.75 µM | 2.48 µM
5 | NC1=NC(c2ccc(Cl)cc2)N(c2ccc(S(=O)(=O)Nc3ncccn3)cc2)C(N)=N1 (configuration not stated) | > 100 µM | > 100 µM | > 100 µM | > 100 µM | 1.08 µM | > 100 µM | > 100 µM | > 100 µM | > 100 µM | > 100 µM | – | – | – | – | – | – | – | – | – | –
6 | N#CNC(N)=NCCO | > 100 µM | > 100 µM | > 100 µM | > 100 µM | > 100 µM | > 100 µM | > 100 µM | > 100 µM | > 100 µM | > 100 µM | – | – | – | – | – | – | – | – | – | –
7 | O=C1c2ccccc2NC(c2cc(Cl)cc(Cl)c2O)N1CCc1ccccn1 (configuration not stated) | > 100 µM | > 100 µM | > 100 µM | > 100 µM | > 100 µM | > 100 µM | > 100 µM | > 100 µM | > 100 µM | 98.9 µM | – | – | – | – | – | – | – | – | – | –
8 | CC1(C)C(c2ccccc2)=NN(O)c2ccccc21 | > 100 µM | > 100 µM | > 100 µM | > 100 µM | > 100 µM | > 100 µM | > 100 µM | > 100 µM | > 100 µM | > 100 µM | – | – | – | – | – | – | – | – | – | –
9 | Cc1ccc(C2CC(c3ccc([N+](=O)[O-])cc3)=Nc3ccccc3S2)cc1 (configuration not stated) | > 100 µM | > 100 µM | > 100 µM | 28 µM | 43.4 µM | > 100 µM | 71.9 µM | 38 µM | > 100 µM | > 100 µM | – | – | – | – | – | – | – | – | – | –
10 | C=CCn1c(=O)c2cnc(Nc3ccc(N4CCN(C)CC4)cc3)nc2n1-c1ccc2c(n1)[C@@](O)(CC)CC2 | 19.5 µM | 49.2 µM | 12 µM | 12.2 µM | 1.3 µM | 22.5 µM | 0.68 µM | 1.27 µM | 15.2 µM | > 39.9 µM | 1.2 µM | 1.41 µM | 0.576 µM | 0.271 µM | 0.189 µM | 1.12 µM | 0.175 µM | 0.3 µM | 1.94 µM | 1.89 µM
11 | Cc1csc(/C=N/NC(=O)c2nnn(-c3ccnc4c(C(F)(F)F)cccc34)c2C)c1 | > 100 µM | > 100 µM | 92.2 µM | > 100 µM | > 100 µM | > 100 µM | > 100 µM | > 100 µM | > 100 µM | 37.4 µM | > 100 µM | 41.8 µM | 26.9 µM | > 100 µM | 50.3 µM | > 100 µM | > 100 µM | 27.2 µM | 79 µM | 5.2 µM
12 | O=C1c2cccc3cc([N+](=O)[O-])cc(c23)C(=O)N1NC1=NCCN1 | > 100 µM | > 100 µM | > 100 µM | > 100 µM | > 100 µM | > 100 µM | > 100 µM | > 100 µM | > 100 µM | > 100 µM | – | – | – | – | – | – | – | – | – | –
13 | CCCCN(CCCC)c1ccc(C(=N)c2ccc(N(C)C)cc2)cc1 | 2.86 µM | 1.84 µM | 2.23 µM | 2.55 µM | 1.16 µM | 1.45 µM | 3.16 µM | 1.7 µM | 2.63 µM | 1.46 µM | 1.31 µM | 0.643 µM | 0.651 µM | 1.1 µM | 0.336 µM | 0.334 µM | 1.53 µM | 0.505 µM | 1.2 µM | 0.375 µM
14 | CC[C@@]1(OC(=O)CN)C(=O)OCc2c1cc1n(c2=O)Cc2cc3cc4c(cc3nc2-1)OCO4 | 0.232 µM | 9.21 µM | 0.459 µM | 0.0367 µM | – | > 100 µM | < 0.01 µM | 0.134 µM | 0.121 µM | 0.826 µM | < 0.0169 µM | 0.108 µM | < 0.01 µM | < 0.01 µM | < 0.01 µM | 0.0735 µM | < 0.01 µM | < 0.01 µM | < 0.01 µM | 0.0988 µM
15 | COC(=O)C1CC(=O)CCC1c1ccccc1 (configuration not stated) | > 100 µM | > 100 µM | > 100 µM | > 100 µM | > 100 µM | > 100 µM | > 100 µM | > 100 µM | > 100 µM | > 100 µM | – | – | – | – | – | – | – | – | – | –
16 | Cc1cc(=O)oc2c(CN3CCCCC3)c(O)ccc12 | > 100 µM | > 100 µM | > 100 µM | > 100 µM | > 100 µM | > 100 µM | > 100 µM | > 100 µM | > 100 µM | > 100 µM | – | – | – | – | – | – | – | – | – | –
